Test results taken from ChEMBL document CHEMBL5104135, “Potent and selective TYK2-JH1 inhibitors highly efficacious in rodent model of psoriasis” (Bioorg Med Chem Lett, 2022).
≈ marks a conversion by molar mass, not a printed value. Calls of active or inactive are those of the source. No cut-off for these calls is given here.

Columns and labels:
[1] = Thermodynamic solubility in fasted simulated intestinal fluid; type: physicochemical; conditions: read-out: Therm_solubility
[2] = biological target: T1, Alpha-2B adrenergic receptor (Homo sapiens) (UniProt P18089); test: Inhibition of human adrenergic alpha2B at 10 uM measured by radioligand binding assay relative to control
T1 sequence (whole entry): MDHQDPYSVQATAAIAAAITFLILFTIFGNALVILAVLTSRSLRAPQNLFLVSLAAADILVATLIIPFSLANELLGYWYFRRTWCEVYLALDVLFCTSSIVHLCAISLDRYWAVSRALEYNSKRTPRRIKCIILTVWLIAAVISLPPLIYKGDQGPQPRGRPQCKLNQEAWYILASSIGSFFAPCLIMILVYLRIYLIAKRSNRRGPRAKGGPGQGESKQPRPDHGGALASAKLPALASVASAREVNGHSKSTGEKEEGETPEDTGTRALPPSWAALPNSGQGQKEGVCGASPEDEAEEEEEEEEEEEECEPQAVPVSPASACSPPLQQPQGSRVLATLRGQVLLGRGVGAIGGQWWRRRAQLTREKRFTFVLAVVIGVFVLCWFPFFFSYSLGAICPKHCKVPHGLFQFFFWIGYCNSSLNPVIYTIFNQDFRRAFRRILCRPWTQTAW

[3] = tested on: Mus musculus; test: Anti-inflammatory activity in IL-23-induced ear inflammation model of mouse assessed as inhibition of ear swelling at 100 mg/kg/day; type: functional
[4] = Volume of distribution in mouse at 3 mg/kg, iv; type: ADME, organism-based; conditions: in vivo
[5] = Clearance in mouse at 3 mg/kg, iv; type: ADME, organism-based; conditions: in vivo
[6] = tested on: Blood; test: Inhibition of IL-12- induced IFN-gamma production in human whole blood; type: functional, tissue-based
[7] = Volume of distribution in dog at 3 mg/kg, iv; type: ADME, organism-based, Canis lupus familiaris; conditions: in vivo
[8] = Clearance in rat at 3 mg/kg, iv; type: ADME, organism-based; conditions: in vivo
[9] = Half-life in dog at 3 mg/kg, iv; type: ADME, organism-based, Canis lupus familiaris; conditions: in vivo
[10] = biological target: T2, Peroxisome proliferator-activated receptor gamma (Homo sapiens) (UniProt P37231); test: Inhibition of human PPARgamma at 10 uM measured by radioligand binding assay relative to control
T2 sequence (whole entry): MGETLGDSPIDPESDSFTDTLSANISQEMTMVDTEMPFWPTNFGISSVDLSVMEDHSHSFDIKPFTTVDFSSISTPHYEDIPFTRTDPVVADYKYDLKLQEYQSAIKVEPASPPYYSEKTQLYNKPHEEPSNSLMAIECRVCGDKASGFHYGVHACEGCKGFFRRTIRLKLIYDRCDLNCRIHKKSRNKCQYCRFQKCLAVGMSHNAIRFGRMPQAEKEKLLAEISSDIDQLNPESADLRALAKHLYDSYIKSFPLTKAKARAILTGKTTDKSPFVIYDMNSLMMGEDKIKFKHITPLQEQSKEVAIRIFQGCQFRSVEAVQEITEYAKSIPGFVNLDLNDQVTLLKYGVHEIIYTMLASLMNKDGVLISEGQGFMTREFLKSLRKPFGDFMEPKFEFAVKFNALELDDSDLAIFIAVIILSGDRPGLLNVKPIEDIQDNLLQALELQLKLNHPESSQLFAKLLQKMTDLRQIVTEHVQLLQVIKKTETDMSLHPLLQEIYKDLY

[11] = tested on: Mus musculus; test: Anti-inflammatory activity in IL-23-induced ear inflammation model of mouse assessed as inhibition of IL-17A levels at 100 mg/kg/day; type: functional
[12] = Thermodynamic solubility in simulated gastric fluid; type: physicochemical; conditions: read-out: Therm_solubility
[13] = tested on: Spleen; test: Anti-inflammatory activity in imiquimod-induced mouse psoriasis model assessed as reduction in inflammation in spleen at 10 to 100 mg/kg/day; type: functional, organism-based; conditions: dose 10-100 mg/kg/day
[14] = Volume of distribution in rat at 3 mg/kg, iv; type: ADME, organism-based; conditions: in vivo
[15] = biological target: Protein kinase C (PKC) (Rattus norvegicus) (UniProt P05696+P68403+P09216+P63319+P09215+Q64617+Q9WTQ0+P09217); test: Inhibition of rat PKC at 10 uM measured by radioligand binding assay relative to control; type: protein assay
[16] = tested on: Blood; test: Inhibition of IL-12- induced IFN-gamma production in mouse whole blood; type: functional, tissue-based
[17] = Plasma protein binding in rat
[18] = Plasma protein binding in dog assessed as unbound fraction
[19] = Plasma protein binding in dog
[20] = Oral bioavailability in mouse at 10 mg/kg; type: ADME, organism-based; conditions: in vivo
[21] = Plasma protein binding in rat assessed as unbound fraction
[22] = tested on: Spleen; test: Anti-inflammatory activity in imiquimod-induced mouse psoriasis model assessed as reduction in spleen weight at 10 to 100 mg/kg/day; type: functional, organism-based; conditions: dose 10-100 mg/kg/day
[23] = Plasma protein binding in mouse assessed as unbound fraction
[24] = Oral bioavailability in rat at 10 mg/kg; type: ADME, organism-based; conditions: in vivo
[25] = Half-life in mouse at 3 mg/kg, iv; type: ADME, organism-based; conditions: in vivo
[26] = biological target: Phosphodiesterase 4 (Homo sapiens) (UniProt P27815+Q08499+Q07343+Q08493); test: Inhibition of human PDE4 at 10 uM measured by radioligand binding assay relative to control; type: protein assay
[27] = Oral bioavailability in dog at 10 mg/kg; type: ADME, organism-based, Canis lupus familiaris; conditions: in vivo
[28] = tested on: Mus musculus; test: Anti-inflammatory activity in imiquimod-induced mouse psoriasis model assessed as reduction in psoriasis score at 10 to 100 mg/kg/day; type: functional, organism-based; conditions: dose 10-100 mg/kg/day
[29] = Plasma protein binding in human assessed as unbound fraction
[30] = Clearance in dog at 3 mg/kg, iv; type: ADME, organism-based, Canis lupus familiaris; conditions: in vivo
[31] = Half-life in rat at 3 mg/kg, iv; type: ADME, organism-based; conditions: in vivo
[32] = biological target: Tyrosine-protein kinase Lck (Homo sapiens) (UniProt P06239); test: Inhibition of human LCK at 10 uM measured by radioligand binding assay relative to control
[33] = Kinetic solubility of compound at pH 7.4; conditions: buffer

Sequence of Tyrosine-protein kinase Lck (Homo sapiens) (P06239 2-509 limits assumed): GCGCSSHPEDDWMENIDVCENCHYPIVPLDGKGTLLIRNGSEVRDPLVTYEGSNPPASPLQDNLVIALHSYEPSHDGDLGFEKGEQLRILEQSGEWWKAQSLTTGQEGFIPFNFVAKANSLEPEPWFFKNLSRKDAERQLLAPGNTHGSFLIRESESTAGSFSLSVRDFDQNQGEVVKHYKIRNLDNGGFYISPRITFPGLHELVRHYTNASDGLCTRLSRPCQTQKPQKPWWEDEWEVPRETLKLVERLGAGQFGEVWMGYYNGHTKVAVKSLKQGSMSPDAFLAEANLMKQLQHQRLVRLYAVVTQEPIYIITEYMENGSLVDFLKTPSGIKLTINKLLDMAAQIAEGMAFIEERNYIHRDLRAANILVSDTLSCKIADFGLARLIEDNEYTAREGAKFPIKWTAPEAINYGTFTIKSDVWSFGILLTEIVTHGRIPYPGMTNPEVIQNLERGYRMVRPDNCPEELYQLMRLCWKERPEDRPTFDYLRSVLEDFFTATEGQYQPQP

Work on `O=C1NCc2nc(-c3c(F)cccc3F)cc(Nc3ccc(C(=O)N4CCCC4)cc3)c21` yielded a solubility thermodynamic [1] of 240 µM (≈ 104 µg/mL), an inhibition [2] of 56% and an inhibition in vivo at 100 mg/kg/day [3] of 74%. For the same compound, the Vd [4] was 1.2 L/kg, the clearance [5] was 28 mL/min/kg and the fIC50 [6] was 0.18 µM. The IC50 ([6]; Homo sapiens, Blood) was 1.8 µM, the Vd [7] was 2.5 L/kg and the clearance [8] was 27 mL/min/kg. It also gave a half-life [9] of 6.5 h, an inhibition [10] of 68% and an inhibition in vivo at 100 mg/kg/day [11] of 96%. For the same compound, the solubility thermodynamic [12] was 2300 µM (≈ 999 µg/mL), the Activity [13] was “Active” and the Vd [14] was 1.9 L/kg. It also gave an inhibition [15] of 66%, a fIC50 [16] of 0.36 µM and an IC50 ([16]; Mus musculus, Blood) of 5.9 µM. For the same compound, the fraction unbound [17] was 0.13, the fraction unbound [18] was 0.13 and the fraction unbound [19] was 0.13. For the same compound, the bioavailability [20] was greater than 90%, the fraction unbound [21] was 0.1 and the Activity [22] was “Active”. The fraction unbound [23] was 0.061, the bioavailability [24] was 32% and the half-life [25] was 1.8 h. For the same compound, the inhibition [26] was 59%, the bioavailability [27] was 63% and the Activity [28] was “Active”. It also gave a fraction unbound [29] of 0.099, a clearance [30] of 5.2 mL/min/kg and a half-life [31] of 1.6 h. The inhibition [32] was 61% and the solubility kinetic [33] was 270 µM (≈ 117 µg/mL).
